Test results: patent publication US9687548B2, “Photoactivatable caged tamoxifen and tamoxifen derivative molecules and methods of use thereof” (Dana-Farber Cancer Institute, Inc., priority 2012, dated 2017)
“Also recorded” adds a separate entry of the source.

Columns and labels:
CreER [1] = biological target: T1, CreER (Homo sapiens, UniProt P03372, G400V/L544A/M543A); assay: In vivo photoactivation in skin of Rosa26CreERT2; mT/mG mice (OV-110 imaging); design: species or system mouse
T1 construct: host or cells: cells and tissues (MEFs, mammary epithelial acini, skin, mammary gland) of heterozygous Rosa26CreER^T2 knock-in reporter mice; the other entry of the earlier key: cre (P06956, Recombinase cre)
T1 sequence (P03372 with tags, fused parts or gaps G400V/M543A/L544A): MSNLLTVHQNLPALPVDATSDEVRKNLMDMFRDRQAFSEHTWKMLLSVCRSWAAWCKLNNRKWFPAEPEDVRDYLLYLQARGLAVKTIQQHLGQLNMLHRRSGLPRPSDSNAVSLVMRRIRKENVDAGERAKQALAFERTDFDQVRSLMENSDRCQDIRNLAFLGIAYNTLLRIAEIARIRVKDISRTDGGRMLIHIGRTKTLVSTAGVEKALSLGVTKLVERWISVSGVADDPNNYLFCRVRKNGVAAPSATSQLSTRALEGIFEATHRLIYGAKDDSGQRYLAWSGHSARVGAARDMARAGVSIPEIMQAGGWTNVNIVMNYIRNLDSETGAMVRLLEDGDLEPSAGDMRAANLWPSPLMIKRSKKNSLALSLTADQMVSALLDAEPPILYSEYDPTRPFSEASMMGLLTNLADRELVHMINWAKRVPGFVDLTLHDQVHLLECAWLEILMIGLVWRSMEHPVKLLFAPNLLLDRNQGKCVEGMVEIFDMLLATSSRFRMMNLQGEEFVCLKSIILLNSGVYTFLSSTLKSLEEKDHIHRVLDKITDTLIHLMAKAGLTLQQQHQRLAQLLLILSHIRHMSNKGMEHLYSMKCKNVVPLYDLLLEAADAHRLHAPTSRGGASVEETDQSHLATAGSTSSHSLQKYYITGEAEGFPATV
Procedure: (§1) Female mice of 6-8 weeks old were clean shaven on the dorsal and ventral sides. The caged 4-OHC was dissolved in 20% Solutol for in vivo delivery. The vehicle or 1 mg caged 4-OHC in vehicle was injected intraperitoneally. One hour later, the mice were anesthetized with isoflurane and exposed to UV light from the hand-held 6 W long-wavelength UV lamp (UVP, LLC) for 15 minutes. Alternatively, for mammary tissue illumination, the right inguinal (#4) mammary fat pad was exposed by creating a small skin flap and illumination with UV light for 15 minutes. For enhanced photoconversion, this procedure was repeated four times. On the seventh day, the mice were imaged with Olympus OV-110 epifluorescence imager (Thurber et al., PLoS One 4:e8053, 2009) to detect fluorescent signals emitted from the skin on the dorsal and ventral sides. Alternatively, the left and right mammary glands were dissected and immediately imaged using the intravital laser scanning microscope IV-110 (Kelly et al., PLoS Med. 5:e85, 2008).

[2] = 4-OHC compared with 4-OHT; cited from earlier work
CreER fusion protein = biological target: T2, CreER fusion protein (Homo sapiens, UniProt P03372, G400V/L544A/M543A); assay: X-gal (lacZ) reporter in MEFs from Rosa26CreERT2; R26R (Lox-STOP-Lox-lacZ) embryos; format: cell-based, mouse; details: with vs without 365 nm UV light exposure; X-gal stained MEFs
T2 construct: host or cells: cells and tissues (MEFs, mammary epithelial acini, skin, mammary gland) of heterozygous Rosa26CreER^T2 knock-in reporter mice; the other entry of the earlier key: cre (P06956, Recombinase cre)
T2 sequence (P03372 with tags, fused parts or gaps G400V/M543A/L544A): T1 sequence (P03372 with tags, fused parts or gaps G400V/M543A/L544A)
Procedure: (§2) Mouse embryonic fibroblasts (MEFs) were isolated as described (Sharpless et al., Mol. Cell 8:1187-1196, 2001) and grown in DMEM with 10% FBS. To shed UV light on the cells, the cells were first grown in 60-mm dish overnight to become nearly confluent. The next day, the medium was replaced with medium containing caged 4-OHC at 5 μM and incubated for 30 minutes. The cells were washed twice quickly with warm PBS and covered with fresh medium. The dish was placed on the UV emission surface of a handheld 6 W long-wavelength UV lamp (UVP, LLC), and UV light was kept on for a designated period of time. The cells were put back into the incubator to culture for 48-72 h before live imaging or flow cytometric analysis.
Mouse embryonic fibroblasts (MEFs) isolated from the Rosa26CreER^T2; mT/mG mice in cell culture were used to test the caged 4-OHC activity. The Rosa26CreER^T2; mT/mG MEFs were treated with either 4-OHC or caged 4-OHC and illuminated at 365 nm. […] To further test the caged 4-OHC, another reporter mouse was generated (Rosa26CreER^T2; R26R mice). The Rosa26CreER^T2; R26R mice were generated by crossing homozygous Rosa26CreER^T2 mice with homozygous Rosa26-loxP-STOP-loxP-lacZ mice (experimental system shown in FIG. 9).
An additional set of experiments were performed to test the ability of Caged Molecules I, II, and III (shown in Schematic #5) to induce nuclear translocation of a ER fusion protein in a cell following light exposure. Mouse embryonic fibroblasts from Rosa26-CreER^T2; Lox-STOP-Lox-lacZ embryos were treated with 5 μM 4-OHC (positive control; lower left panel), treat Caged Molecule I (“Compound I”) with or without 365 nm UV light exposure (top right and top center panels, respectively), Caged Molecule II (“Compound II”) with or without 365 nm UV light exposure (middle right and middle center panels, respectively), or Caged Molecule III (“Compound III”) with or without 365 UV light exposure (bottom right and […] panels, respectively).

[3] = Stability of caged molecule in the absence of light; format: physicochemical; details: in the dark / prior to illumination
CreER [4] = biological target: T1, CreER; assay: In vivo photoactivation in mammary gland of female Rosa26CreERT2; mT/mG mice (ex vivo IV-110 imaging); design: species or system mouse
Procedure: as §1

[5] = UV-Vis and HPLC-MS characterization of the photocleavage of caged 4-OHC; format: physicochemical
Procedure: A 0.25 mM solution of caged 4-OHC in 1:1 (v/v) water:acetonitrile was used for the UV-Vis spectroscopic characterization of the photocleavage reaction. The solution of the caged 4-OHC was placed in a 96-well black clear bottom microplate. The solution was then irradiated at ˜365 nm using a hand-held UV lamp. After light exposure, UV-Vis spectra of the solution was recorded in a TECAN microplate reader. A time course of the photocleavage reaction was monitored by exposing the caged 4-OHC solution to light for different durations, and subsequently recording the UV-Vis spectra of the solution.
A 2.0 mM solution of caged 4-OHC in 1:1 (v/v) water: acetonitrile was used for the HPLC-MS study. The solution of the caged 4-OHC was placed in a glass vial and irradiated at ˜365 nm using a hand-held UV lamp. Aliquots were taken at different time intervals and injected to the HPLC-MS machine for analysis. Prism 5 (GraphPad, La Jolla, Calif.) for Mac was used to plot the data.

CreER [6] = biological target: T1, CreER; assay: Photoactivated EGFP expression in mammary acinus 3D culture from Rosa26CreERT2; mT/mG mice; format: cell-based, mouse; details: 5 μM, 1 min UV lamp or 60× objective DAPI filter
Procedure: Mouse mammary epithelial cells […] were isolated from 6-8 week old female Rosa26CreER^T2; mT/mG mice as previously described (Tiede et al., PLoS One 4:e8035, 2009). Briefly, mammary glands were excised, minced using scalpels, and digested for 1 hour in 300 U/mL type 1A collagenase (Sigma) and 100 U/mL hyaluronidase (Sigma). The cells were then treated with 0.25% trypsin/EDTA, dispase (Invitrogen)/DNase (Sigma), and ACK lysing buffer (Invitrogen) in succession. Between each treatment, cells were rinsed in MEGM (1:1 DMEM:F12 Ham supplemented with […], 500 ng/mL hydrocortisone, 10 ng/mL EGF, 20 ng/mL cholera toxin, 5% bovine calf serum, and 1× penicillin/streptomycin). Afterwards, cells were filtered twice through […] nylon cell strainers and seeded in 35-mm dishes that contained a layer of Growth Factor Reduced Matrigel (BD Biosciences) measuring approximately 1-2 mm thickness. Acini usually formed in 4-8 days. During photoactivation, the acini were incubated with MEGM containing 5 μM caged 4-OHC for 1 hour. The cells were washed twice quickly with warm PBS and covered with fresh medium. The dish was placed on the UV emission surface of a hand-held 6 W long-wavelength UV lamp (UVP, LLC, exposure time: 1 minute) or above the 60× objective of an inverted epifluorescent microscope equipped with a standard DAPI filter set. […]

CreER [7] = biological target: T1, CreER; assay: Photoactivated EGFP expression in MEFs from Rosa26CreERT2; mT/mG mice; format: cell-based, mouse; details: 5 μM, 365 nm illumination vs no light
Procedure: as §2
A recently developed double-fluorescent Cre reporter mouse, the mT/mG strain (Muzumdar, Genesis 45:593, 2007) was used to design a biological system that can faithfully report on the induced activity of CreER. This mouse model expresses tdTomato prior to and EGFP following Cre-mediated recombination ubiquitously in tissues. […] The photoinduced activity of caged tamoxifen and caged tamoxifen derivative molecules can be assessed by illuminating the cells and tissues from these mice and looking for EGFP-expressed cells (FIG. 1).

CN(C)CCOc1ccc(C(=C2CCCCC2)c2ccc(O)cc2)cc1 [4-OHC, 4-hydroxycyclofen, reference compound]
EGFP signal at whole mouse level (CreER [1]; treated with 4-OHC (uncaged)): strong EGFP signal was detected | photostability [2]: better photostability

COc1ccc(-c2ccc([N+](=O)[O-])c(C(C)COc3ccc(C(=C4CCCCC4)c4ccc(OCCN(C)C)cc4)cc3)c2)cc1 (stereo not drawn) [Caged Molecule III]
nuclear translocation / nuclear transport of the ER fusion protein (CreER fusion protein): resulted in an increase in the nuclear transport of the ER fusion protein

COc1cc(C(C)Oc2ccc(C(=C3CCCCC3)c3ccc(OCCN(C)C)cc3)cc2)c([N+](=O)[O-])cc1OC (stereo not drawn) [caged 4-OHC, 1-(4,5-dimethoxy-2-nitrophenyl) ethanol (DMNPE) caged 4-hydroxycyclofen]
breakdown in the absence of light exposure [3]: did not appear to show any sign of breakdown prior to illumination | EGFP induction in illuminated right vs non-illuminated left mammary gland (CreER [4]; intraperitoneal, 365 nm light on right mammary gland, seven days later): the right, but not the left, mammary gland showed strong EGFP induction; also recorded: expressed EGFP | diffusion after uncaging to other organs (CreER [4]; skin and mammary gland data taken together): limited diffusion after uncaging | EGFP signal on illuminated ventral vs non-illuminated dorsal skin (CreER [1]; intraperitoneal, UV illumination only on ventral skin): EGFP signal was observed on the ventral skin but not on the dorsal skin | average increase in fluorescence intensity (CreER [1]; intraperitoneal, ventral skin UV illuminated): 2.5 fold | conversion to / release of 4-OHC upon UV irradiation ([5]; HPLC-MS, ~365 nm, 2.0 mM in water:acetonitrile 1:1): quantitative, unidirectional conversion to 4-OHC; also recorded: quantitative release of 4-OHC | time to completion of photochemical (photocleavage) reaction ([5]; hand-held 365 nm UV lamp, UV-Vis, water:acetonitrile 1:1): ≤ 10 min | EGFP expression in response to photoactivation (CreER [6]): very tight control of EGFP expression in response to photoactivation | EGFP expression after photocleavage (CreER [7]): induced EGFP expression in a stringent fashion

4-hydrocyclofen conjugated with the photoactivatable 4,5-demethoxy-2-nitrophen methanol (DMNPM) group [DMNPM caged 4-hydroxycyclofen, reference compound]
breakdown in the absence of light exposure [3]: spontaneous breakdown in the absence of appropriate light exposure

CCOC(=O)COc1c(OC)cc([N+](=O)[O-])c(COc2ccc(C(=C3CCCCC3)c3ccc(OCCN(C)C)cc3)cc2)c1[N+](=O)[O-] [Caged Molecule II]
nuclear translocation / nuclear transport of the ER fusion protein (CreER fusion protein): resulted in an increase in the nuclear transport of the ER fusion protein

CCOc1c(OC)cc([N+](=O)[O-])c(COc2ccc(C(=C3CCCCC3)c3ccc(OCCN(C)C)cc3)cc2)c1[N+](=O)[O-] [Caged Molecule I]
nuclear translocation / nuclear transport of the ER fusion protein (CreER fusion protein): resulted in an increase in the nuclear transport of the ER fusion protein
